Structures are written as SMILES.

For this assay, the target named is Amyloid-beta precursor protein (Homo sapiens, UniProt P05067). Briefly: Displacement of [125I]IMPY from beta amyloid plaque in brain homogenates. It counts as tissue-based. On the technique in general: In a radioligand displacement assay an active substance lowers the binding of a labelled ligand.
Sequence of Amyloid-beta precursor protein (P05067 whole entry): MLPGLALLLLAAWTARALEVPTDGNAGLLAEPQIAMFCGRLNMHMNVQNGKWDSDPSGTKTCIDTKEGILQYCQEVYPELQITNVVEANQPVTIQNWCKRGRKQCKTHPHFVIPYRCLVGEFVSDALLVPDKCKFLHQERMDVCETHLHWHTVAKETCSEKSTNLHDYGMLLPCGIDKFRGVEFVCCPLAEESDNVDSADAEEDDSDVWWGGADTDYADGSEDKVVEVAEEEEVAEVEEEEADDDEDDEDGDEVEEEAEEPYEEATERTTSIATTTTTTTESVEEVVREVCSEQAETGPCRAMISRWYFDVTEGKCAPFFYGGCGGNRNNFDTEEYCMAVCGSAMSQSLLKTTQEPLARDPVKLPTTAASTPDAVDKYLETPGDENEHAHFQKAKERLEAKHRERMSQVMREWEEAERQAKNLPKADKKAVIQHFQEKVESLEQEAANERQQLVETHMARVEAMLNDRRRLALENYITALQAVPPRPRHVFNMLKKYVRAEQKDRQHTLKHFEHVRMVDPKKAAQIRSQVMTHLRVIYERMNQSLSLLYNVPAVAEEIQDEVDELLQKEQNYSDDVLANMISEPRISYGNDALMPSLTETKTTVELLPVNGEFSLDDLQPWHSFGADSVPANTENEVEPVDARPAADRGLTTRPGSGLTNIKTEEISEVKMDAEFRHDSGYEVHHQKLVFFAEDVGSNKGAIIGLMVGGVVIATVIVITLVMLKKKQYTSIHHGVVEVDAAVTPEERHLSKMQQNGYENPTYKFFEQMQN
The molecule `O=[N+]([O-])c1ccc(-c2ccc(-c3ccc([N+](=O)[O-])cc3)s2)cc1` displayed a Ki of 185 nM.

`COc1ccc(-c2ccc(-c3ccc(NCCF)cc3)s2)cc1` displayed a Ki of 21.5 nM.

Molecule `COc1ccc(-c2ccc(-c3ccc(N)cc3)s2)cc1` had a Ki of 5.6 nM. Against the preceding molecule, the Ki is about 3.8-fold lower.

For the molecule `Oc1ccc(-c2ccc(-c3ccc(O)cc3)s2)cc1`, the affinity, expressed as Ki, was 4 nM. The Ki values of the last two molecules are within 1.5-fold of each other.

With `COc1ccccc1-c1ccc(-c2ccccc2OC)s1`, the Ki was determined as 625 nM.

In the case of `COc1ccc(-c2ccc(-c3ccc([N+](=O)[O-])cc3)s2)cc1`, the Ki worked out at 18.5 nM. This Ki is about 34-fold lower than that of the molecule before.

`CNc1ccc(-c2ccc(-c3ccc(O)cc3)s2)cc1` had a Ki of 31.2 nM. This Ki lies about 1.7-fold higher than the previous one.

The molecule `Nc1ccc(-c2ccc(-c3ccc(O)cc3)s2)cc1` yielded a Ki of 9.6 nM. Against the preceding molecule, the Ki is about 3.2-fold lower.

As to `Oc1ccc(-c2ccc(-c3ccc(NCCF)cc3)s2)cc1`, affinity was put at a Ki of 3.9 nM. Compared with the last molecule, the Ki is about 2.5-fold lower.

`CN(C)c1ccc(-c2ccc(-c3ccc(O)cc3)s2)cc1` showed a Ki of 7.5 nM.

As for `COc1ccc(-c2ccc(-c3ccc(OC)cc3)s2)cc1`, the Ki was 108 nM.

Molecule `COc1ccc(-c2ccc(-c3ccc(O)cc3)s2)cc1` showed a Ki of 6.1 nM.

On to `Nc1ccc(-c2ccc(-c3ccc(N)cc3)s2)cc1`, for which affinity was put at a Ki of 6.1 nM.

`CSc1ccc(-c2ccc(-c3ccc(SC)cc3)s2)cc1` had a Ki of more than 1000 nM.

On to `COc1ccc(-c2ccc(-c3ccc(N(C)C)cc3)s2)cc1`, for which the Ki stood at 500 nM.

As usually defined, the Ki is a measure of affinity in units of concentration, obtained from inhibition or displacement.
